Experimental data from publication PMC8948292, “Combining PEGylated mito-atovaquone with MCT and Krebs cycle redox inhibitors as a potential strategy to abrogate tumor cell proliferation” (Scientific Reports, 2022).
Like-named read-outs stand apart in the source and are kept apart here.

Legend:
MiaPaCa-2 cells [1] = assay: Intracellular oxidants: HPLC of hydroethidine (HE) oxidation products; assay type: cell-based, human
Procedure: Hydroethidine (HE) or dihydroethidium was used as a fluorogenic probe to assess the cellular generation of superoxide and other peroxidatic oxidants[36],[37]. Cells were treated for 24 h with Mito-PEG5-ATO alone or in combination with AZD-3965 or CPI-613, followed by 1 h incubation with HE (10 µM). Cells were harvested and the cell pellet stored at − 80 °C until the day of high-performance liquid chromatography (HPLC) analysis. Sample preparation and HPLC analysis were performed as previously reported[32],[36]. 2-OH-E^+ was used as a specific marker for superoxide, and E^+-E^+ was used as a specific marker for intracellular one-electron oxidants[36],[37].
HE was purchased from Invitrogen (Carlsbad, CA). Stock solutions (20 mM and 5 mM, respectively) were prepared in deoxygenated DMSO (dimethyl sulfoxide) and stored at − 80 °C until use. Ethidium cation (bromide salt) was purchased from Sigma-Aldrich. The hydroxylated oxidation products from HE (2-OH-E^+) were prepared by reacting the probes with Fremy’s salt as previously described in detail[70],[71]. The dimeric products were prepared by reacting the probes with excess potassium ferricyanide, as detailed elsewhere. Synthesized standards of all oxidation products of HE were purified by HPLC. HPLC-based measurements of HE and its oxidation products were performed using an Agilent 1100 system equipped with absorption and fluorescence detectors and refrigerated autosampler (4 °C). The samples (50 µL) were injected into a reverse phase column (Phenomenex, Kinetex C18, 100 mm × 4.6 mm, 2.6 µm) equilibrated with 20% acetonitrile and 80% water containing 0.1% trifluoroacetic acid. The compounds were eluted by increasing the content of acetonitrile from 20 to 56% over 4.5 min at a flow rate of 1.5 mL/min. The absorption detector was used to measure 3,8-diamino-6-phenylphenanthridine (at 290 nm; retention time: 2.5 min), HE-E^+ (at 290 nm; retention time: 4.1 min), E^+-E^+ (at 290 nm; retention time: 4.3 min), and HE (at 370 nm; retention time: 1.6 min). A fluorescence detector (initial excitation at 358 nm and emission at 440 nm) was used to monitor HE (when present at low concentrations). At 2.3 min after injection, the fluorescence parameters were changed (excitation at 490 nm and emission at 567 nm) for sensitive detection of 2-OH-E^+ (retention time: 3.2 min) and E^+ (retention time: 3.3 min).

MiaPaCa-2 cells [2] = assay: Cell proliferation (cell confluence), IncuCyte Live-Cell Analysis System; assay type: cell-based, human; conditions: for IC50: Homo sapiens; for Cell confluence (% of control): control ~90% confluence
In short: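 MiaPaCa-2 cells in DMEM with 10% FBS, plated at 1,000 cells/well in triplicate and adhered overnight, then treated with Mito-PEG-ATO analogs. Confluence imaged label-free over several days, increase in percent confluence serving as proliferation surrogate.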

[3] = molecular target: mitochondrial complex III (MiaPaCa-2 cells) (Homo sapiens, UniProt P00156); assay: Complex III-dependent oxygen consumption in permeabilized cells, Seahorse XF-96; assay type: cell-based
mitochondrial complex III (MiaPaCa-2 cells), sequence (P00156 whole entry): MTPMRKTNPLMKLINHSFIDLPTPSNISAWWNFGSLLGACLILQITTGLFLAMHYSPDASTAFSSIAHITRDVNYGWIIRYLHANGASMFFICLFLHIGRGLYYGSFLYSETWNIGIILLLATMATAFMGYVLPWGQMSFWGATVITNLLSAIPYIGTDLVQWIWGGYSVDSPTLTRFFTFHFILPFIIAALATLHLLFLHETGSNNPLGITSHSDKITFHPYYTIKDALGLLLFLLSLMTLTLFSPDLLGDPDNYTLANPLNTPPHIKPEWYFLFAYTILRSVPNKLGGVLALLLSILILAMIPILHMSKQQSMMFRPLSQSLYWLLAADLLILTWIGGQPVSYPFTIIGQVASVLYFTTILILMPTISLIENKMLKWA
mitochondrial complex III (MiaPaCa-2 cells), sequence (P47985 whole entry partner): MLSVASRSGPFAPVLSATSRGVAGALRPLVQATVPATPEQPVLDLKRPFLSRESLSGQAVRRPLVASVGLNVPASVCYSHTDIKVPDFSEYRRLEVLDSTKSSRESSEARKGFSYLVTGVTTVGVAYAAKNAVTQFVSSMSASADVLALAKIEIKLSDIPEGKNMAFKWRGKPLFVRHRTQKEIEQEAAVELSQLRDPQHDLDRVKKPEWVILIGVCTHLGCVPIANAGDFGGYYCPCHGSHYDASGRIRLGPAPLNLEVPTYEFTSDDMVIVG
In short: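 MiaPaCa-2 cells were treated 24 h with Mito-PEG-ATO analogs, and OCR was read on a Seahorse XF-96; basal respiration was taken in intact cells. For complex I, permeabilized cells received 10 mM pyruvate, 1.5 mM malate and 10 mM malonate; for complex III, 0.5 mM duroquinol, 1 µM rotenone and 10 mM malonate, both in mannitol/sucrose buffer. IC50 values were derived from the OCR data.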

O=C1C(OCCOCCOCCOCCOCC[P+](c2ccccc2)(c2ccccc2)c2ccccc2)=C([C@H]2CC[C@H](c3ccc(Cl)cc3)CC2)C(=O)c2ccccc21.[Br-] [Mito-PEG5-ATO, [14-((3-(trans-4-(4-chlorophenyl)cyclohexyl)-1,4-dioxo-1,4-dihydronaphthalen-2-yl)oxy)-3,6,9,12-tetraoxatetradecyl]triphenylphosphonium bromide]
HE oxidation products 2-OH-E+, E+ and E+-E+ (MiaPaCa-2 cells [1]; 24 h treatment, then HE 10 µM 1 h): slight but significant increase
IC50 (MiaPaCa-2 cells [2]; MIA PaCa-2, read-out: IC50, antiproliferative): 0.038 µM
Cell confluence (% of control) (MiaPaCa-2 cells [2]; MiaPaCa-2 cells, 0.003 µM): 94.98 % of control
Cell confluence (% of control) (MiaPaCa-2 cells [2]; MiaPaCa-2 cells, 0.01 µM): 93.81 % of control
Cell confluence (% of control) (MiaPaCa-2 cells [2]; MiaPaCa-2 cells, 0.03 µM): 74.87 % of control
Cell confluence (% of control) (MiaPaCa-2 cells [2]; MiaPaCa-2 cells, 0.05 µM): 41.88 % of control
Cell confluence (% of control) (MiaPaCa-2 cells [2]; MiaPaCa-2 cells, 0.1 µM): 7.64 % of control
Cell confluence (% of control) (MiaPaCa-2 cells [2]; MiaPaCa-2 cells, 0.2 µM): 4.52 % of control
Cell confluence (% of control) (MiaPaCa-2 cells [2]; MiaPaCa-2 cells, 0.3 µM): 4.07 % of control
Cell confluence (% of control) (MiaPaCa-2 cells [2]; MiaPaCa-2 cells, 0.5 µM): 3.75 % of control
Cell confluence (% of control) (MiaPaCa-2 cells [2]; MiaPaCa-2 cells, 1 µM): 3.53 % of control
Cell confluence (% of control) (MiaPaCa-2 cells [2]; MiaPaCa-2 cells, 3 µM): 2.64 % of control
Cell confluence (% of control) (MiaPaCa-2 cells [2]; MiaPaCa-2 cells, 10 µM): 2.40 % of control
Complex III activity (OCR, % of control) ([3]; 0.003 µM): 94.9 % of control
Complex III activity (OCR, % of control) ([3]; 0.01 µM): 94.3 % of control
Complex III activity (OCR, % of control) ([3]; 0.03 µM): 84.2 % of control
Complex III activity (OCR, % of control) ([3]; 0.05 µM): 89.9 % of control
Complex III activity (OCR, % of control) ([3]; 0.075 µM): 89.1 % of control
Complex III activity (OCR, % of control) ([3]; 0.1 µM): 87.5 % of control
Complex III activity (OCR, % of control) ([3]; 0.3 µM): 61.6 % of control
Complex III activity (OCR, % of control) ([3]; 0.5 µM): 38.4 % of control
Complex III activity (OCR, % of control) ([3]; 1 µM): 17.8 % of control
Complex III activity (OCR, % of control) ([3]; 3 µM): 8.0 % of control
IC50 ([3]; MiaPaCa-2 cells, 24 h treatment, antimycin A-inhibitable OCR, read-out: IC50, complex III-induced oxygen consumption (Complex III activity)): 0.39 µM

Cc1[nH]nc(C(F)(F)F)c1Cc1sc2c(c1C(=O)N1C[C@](C)(O)CO1)c(=O)n(C)c(=O)n2C(C)C [AZD-3965]
Intracellular oxidant-induced HE-derived products, in combination with Mito-PEG5-ATO (MiaPaCa-2 cells [1]; 24 h, with Mito-PEG5-ATO 0.05 µM, AZD-3965 200 µM or CPI-613 200 µM): modest and additive increase
IC50 (MiaPaCa-2 cells [2]; MIA PaCa-2, read-out: IC50 (cell proliferation) without Mito-PEG5-ATO): 278 µM
Inhibition of cell proliferation in combination with Mito-PEG5-ATO (combination index) (MiaPaCa-2 cells [2]; MiaPaCa-2 cells, combined with Mito-PEG5-ATO): synergistic
% changes of IC50 with vs without Mito-PEG5-ATO (MiaPaCa-2 cells [2]; MiaPaCa-2 cells, heat map Fig. 7d): 52.5%
Effect on the decrease in complex III-induced oxygen consumption induced by Mito-PEG5-ATO ([3]; MiaPaCa-2 cells, with Mito-PEG5-ATO): Neither AZD-3965 nor V-9302 significantly affected
